Experimental data published in US20120065198A2, “Detection and Treatment of Schizophrenia” (Tokai University Educational System, priority 2007, published 2012).

Key:
pentosidine formation [1] = test: Inhibitory effect on AGEs (pentosidine) formation in serum of renal failure patients; format: biochemical, human; settings: final concentration 5 mM, 1 week at 37° C.; for Pentosidine Formation Ratio (%): control as 100%; for AGE Formation Inhibition Ratio (%): determined from the pentosidine formation ratio
Method: To 450 μl of protein (serum of renal failure patients with an informed consent) was added 50 μl of a solution of each test compound in dimethylsulfoxide (final concentration: 5 mM), and the resulting mixture was incubated for 1 week at 37° C. The quantity of pentosidine, which is one of the AGEs formed, was subsequently measured as follows.
First, in order to release the pentosidine formed in the protein, 50 μl of 10% trichloroacetic acid was added to 50 μl of the reacted sample, and the mixture was centrifuged to precipitate the protein that was then collected. The collected protein was washed with 300 μl of 5% trichloroacetic acid and dried; 100 μl of 6 N hydrochloric acid was subsequently added, and hydrolysis was performed for 16 hours at 110° C. The quantity of pentosidine (nmol/l) formed was measured by HPLC using a fluorescence detector (ODS C18, 4.6×250 mm, 335 nm, 385 nm), according to a gradient method (30 minutes, 1.0 ml/min) using a mobile phase of distilled water containing 0.1% trifluoroacetic acid/80% acetonitrile containing 0.08% trifluoroacetic acid (Miyata, T et al.,: J. Am. Soc., Nephrol., 7, 1198-1206, 1996; Miyata, T., et al., Proc. Natl. Acad. Sci., USA, 93 2353-2358, 1996).
In order to evaluate the inhibitory effect of each test compound on AGE formation, the proportion of the quantity of pentosidine formed was calculated as the ratio (%) of pentosidine formation relative to the quantity of pentosidine formed with a control as 100%. Further, from the calculated value, the ratio of inhibition of pentosidine formation (the ratio (%) of inhibition of AGE formation) was also determined.

pentosidine formation [2] = test: Inhibitory activity on pentosidine formation, samples incubated with BSA and arabinose; format: biochemical; settings: incubated with BSA and arabinose instead of patient plasma
Method: Plasma was collected from hemodialysis patients prior to dialysis with the patients' consent, and the plasma was filtered and sterilized. To the plasma (450 μL) was added solutions of TM-2002 in dimethylsulfoxide (50 μL) (final concentrations: 0.8, 2.0, and 5.0 mM), and the mixtures were incubated for 1 week at 37° C. The levels of the pentosidine formation were measured.
Pentosidine was measured as follows. To each sample (50 μL) after incubation was added an equal volume of 10% trichloroacetic acid, and the mixture was subsequently centrifuged at 5,000 g for 5 minutes. After the supernatant was removed, the pellet was washed with 5% trichloroacetic acid (300 μL). The pellet was dried under reduced pressure, and subsequently hydrolyzed in a 6N HCl solution (100 μL) under a nitrogen atmosphere for 16 hours at 110° C. To the acid hydrolysate was then added 5N NaOH (100 μL) and 0.5 M phosphate buffer (pH 7.4) (200 μL); the mixture was subsequently filtered through a micropore filter with 0.5 μm pores and diluted with PBS. The concentration of the released pentosidine was measured by reverse-phase HPLC using a fluorescence detector (RF-10A, Shimadzu Corporation) (Miyata, T. et al.; Proc. Natl. Acad. Sci. USA, Vol. 93, p. 2353-2358, 1996). The effluent was monitored at the excitation/emission wavelength of 335/385 nm. Synthetic pentosidine was used as the reference material. The detection limit of pentosidine was 0.1 pmol/mg protein.
(2) Other edaravone analogues (Compounds (1) or (2)) were investigated for their inhibitory activities on pentosidine formation in the same manner as in Section (1) above, except that the samples were incubated with BSA and arabinose instead of the patient plasma. In the tables, “-” means that the test was not conducted.

| Structure (SMILES) | Pentosidine Formation Ratio (%) (pentosidine formation [1]) | AGE Formation Inhibition Ratio (%) (pentosidine formation [1]) | Pentosidine Formation Ratio (%) at 5 mM Drug Concentration (pentosidine formation [2]) | Pentosidine Formation Ratio (%) at 5 Concentration (pentosidine formation [2]; Table 13) |
| --- | --- | --- | --- | --- |
| O=C(NC1=NN(c2ccccc2)C(=O)C1Sc1nnnn1-c1ccccc1)c1ccccc1 (centres unmarked) [(14)] | 22.1% | 77.9% |  |  |
| C/C(=N\O)C1C(=O)N(c2ccccc2)N=C1c1ccccc1 (centres unmarked) [(16)] | 25.8% | 74.2% |  |  |
| NC1=NN(c2ccccc2)C(=O)C1Sc1nnnn1-c1ccccc1 (centres unmarked) [(6)] | 16.8% | 83.2% |  |  |
| CC1=NN(c2ccccc2)C(=O)C1C1C(=O)N(c2ccccc2)N=C1C (centres unmarked) [(17)] | 35.0% | 65.0% |  |  |
| CC1=NN(c2ccccc2)C(=O)C1C(c1ccccc1)c1c(C)nn(-c2ccccc2)c1O (centres unmarked) [(9)] | 30.8% | 69.2% |  |  |
| CC1=NN(c2ccc(N)cc2)C(=O)C1CCO (centres unmarked) [(5)] | 9.33% | 90.67% |  |  |
| CC1=NN(c2ccccc2)C(=O)C1NS(=O)(=O)c1ccc(C)cc1 (centres unmarked) [(11)] | 24.9% | 75.1% |  |  |
| CCCC1=NN(c2ccccc2)C(=O)C1CC(=O)c1ccccc1 (centres unmarked) [(20)] | 12.4% | 87.6% |  |  |
| CC1=NN(c2ccccc2)C(=O)C1(O)S(=O)(=O)[O-].[Na+] (centres unmarked) [compound 25, sodium 4-hydroxy-3-methyl-5-oxo-1-phenyl-4,5-dihydro-1H-pyrazole-4-sulfonate] |  |  | 38.80% |  |
| CC1=NN(c2ccccc2)C(=O)C12Sc1ccccc1C2=O (centres unmarked) [compound 28] |  |  | 22.83% |  |
| CC1=NN(c2cccc([N+](=O)[O-])c2)C(=O)C1Sc1nnnn1-c1ccccc1 (centres unmarked) [(13)] | 45.4% | 54.6% |  |  |
| CN(C)c1ccc(/C=C2\C(=O)N(c3ccc(S(N)(=O)=O)cc3)N=C2C(F)(F)F)cc1 [compound 51, 4-[4-(4-dimethylamino-benzyliden)-5-oxo-3-trifluoromethyl-4,5-dihydro-pyrazol-1-yl]-benzenesulfonamide] |  |  | 41.68% |  |
| COc1cc(/C=C2/C(=O)N(c3ccc(Cl)c(C(=O)O)c3)N=C2C)c(Cl)cc1O [compound 61, 2-chloro-5-[4-(2-chloro-4-hydroxy-5-methoxy-benzylidene)-3-methyl-5-oxo-4,5-dihydro-pyrazol-1-yl]-benzoic acid] |  |  | 46.52% |  |
| CCC1C(=O)N(c2ccc(Cl)cc2)N=C1C (centres unmarked) [(18)] | 18.0% | 82.0% |  |  |
| CC1=NN(c2cccc(C(=O)O)c2)C(=O)/C1=C\c1ccc(N2CCC(Cl)=N2)cc1 [compound 36, 3-{4-[4-(3-chloro-4,5-dihydro-pyrazol-1-yl)-benzylidene]-3-methyl-5-oxo-4,5-dihydro-pyrazol-1-yl}-benzoic acid] |  |  | 26.37% |  |
| O=C1C2CCCC2=NN1c1ccccc1 (centres unmarked) [(10)] | 18.0% | 82.0% |  |  |
| NC1=NN(c2ccccc2)C(=O)C1C(=O)C(=O)Nc1nccs1 (centres unmarked) [(2)] | 26.1% | 73.9% |  |  |
| CC1=NN(c2ccc(C)c(C)c2)C(=O)/C1=C\c1ccc(O)cc1O [compound 54, 4-(2,4-dihydroxy-benzylidene)-2-(3,4-dimethyl-phenyl)-5-methyl-2,4-dihydro-pyrazol-3-one] |  |  | 73.48% |  |

| Structure (SMILES) | Pentosidine Formation Ratio (%) (pentosidine formation [1]) | AGE Formation Inhibition Ratio (%) (pentosidine formation [1]) | Pentosidine Formation Ratio (%) at 5 mM Drug Concentration (pentosidine formation [2]) | Pentosidine Formation Ratio (%) at 5 Concentration (pentosidine formation [2]; Table 13) |
| --- | --- | --- | --- | --- |
| CC1=NN(c2ccc(Cl)cc2)C(=O)/C1=C/c1ccc(O)cc1O [compound 42, 2-(4-chloro-phenyl)-4-(2,4-dihydroxy-benzylidene)-5-methyl-2,4-dihydro-pyrazol-3-one] |  |  | 68.32% |  |
| CC1=NN(c2ccc(C)cc2)C(=O)/C1=C/c1ccc(O)c(O)c1 [compound 44, 4-(3,4-dihydroxy-benzylidene)-5-methyl-2-p-toluyl-2,4-dihydro-pyrazol-3-one] |  |  | 66.19% |  |
| Cc1ncc2c(c1O)C(c1c(C)nn(-c3ccccc3)c1O)OC2 (centres unmarked) [compound 68] |  |  | 2.82% |  |
| NC1=NN(c2ccccc2)C(=O)C1C(=O)C(=O)Nc1ccccc1 (centres unmarked) [(1)] | 18.1% | 81.9% |  |  |
| Cc1ncc2c(c1O)C(c1c(C)nn(-c3ccccc3)c1O)OC2.Cl (centres unmarked) [compound 69, 1-(5-hydroxy-3-methyl-1-phenyl-1H-pyrazol-4-yl)-6-methyl-1,3-dihydro-furo [3,4-c]pyridin-7-ol] |  |  |  | 2.94% |
| COC(=O)c1ccc(N2N=C(C)/C(=C/c3ccc(-c4ccc(S(N)(=O)=O)cc4)o3)C2=O)cc1 [compound 41, 4-{3-methyl-5-oxo-4-[5-(4-sulfamoyl-phenyl)-furan-2-ylmethylene]-4,5-dihydro-pyrazol-1-yl}-benzoic acid methyl ester] |  |  | 37.81% |  |
| COc1cc(/C=C2/C(=O)N(c3ccc(C(=O)OC(C)C)cc3)N=C2C)ccc1O [compound 60] |  |  | 9.02% |  |
| COc1cc(/C=C2\C(=O)N(c3ccc(Cl)cc3)N=C2C(F)(F)F)ccc1O [compound 47, 2-(4-chloro-phenyl)-4-(4-hydroxy-3-methoxy-benzylidene)-5-trifluoromethyl-2,4-dihydro-pyrazol-3-one] |  |  | 28.86% |  |
| COC(=O)c1ccc(N2N=C(C)/C(=C/c3ccc4c(c3)OCO4)C2=O)cc1 [compound 40, 4-(4-benzo[1,3]dioxol-5-ylmethylene-3-methyl-5-oxo-4,5-dihydro-pyrazol-1-yl)-benzoic acid methyl ester] |  |  | 32.37% |  |
| CC(=O)NC1C(=O)N(c2ccccc2)N=C1C (centres unmarked) [(8)] | 23.5% | 76.5% |  |  |
| CC(=O)NC1C(=O)N(c2ccccc2)N=C1C (centres unmarked) [compound 12, N-(3-methyl-5-oxo-1-phenyl-4,5-dihydro-1H-pyrazol-4-yl)-acetamide] |  |  | 54.21% |  |
| CC1=NN(c2cccc([N+](=O)[O-])c2)C(=O)C1Sc1nnnn1-c1ccccc1 (centres unmarked) [compound 13, 5-methyl-2-(3-nitro-phenyl)-4-(1-phenyl-1H-tetrazol-5-ylsulfanyl)-2,4-dihydro-pyrazol-3-one] |  |  | 74.66% |  |
| O=C(NC1=NN(c2ccccc2)C(=O)C1(O)S(=O)(=O)[O-])c1ccccc1.[Na+] (centres unmarked) [compound 27, Sodium 3-benzoylamino-4-hydroxy-5-oxo-1-phenyl-4,5-dihydro-1H-pyrazole-4-sulfonate] |  |  | 2.83% |  |
| CC1=NN(c2cccc(C(F)(F)F)c2)C(=O)/C1=C/C=C/c1ccccc1 [compound 33] |  |  | 80.08% |  |
| COc1ccc(/C=C2/C(=O)N(c3ccccc3)N=C2C)c(OC)c1O [compound 59, 4-(3-hydroxy-2,4-dimethoxy-benzylidene)-5-methyl-2-phenyl-2,4-dihydro-pyrazol-3-one] |  |  | 5.3% |  |
| COC(=O)c1cccc(-c2ccc(/C=C3\C(=O)N(c4ccc(S(C)(=O)=O)cc4)N=C3C)o2)c1 [compound 39] |  |  | 16.87% |  |
| CC1=NN(c2ccccc2)C(=O)C1CCC(=O)O (centres unmarked) [(7)] | 27.2% | 72.8% |  |  |
